Assay results as given in PubChem BioAssay AID1645867 (Buhrlage Lab, Dana-Farber Cancer Institute and Novartis …, 2021).
The source made the active and inactive calls. The rule behind the calls is not given here.

These compounds were tested against Ubiquitin carboxyl-terminal hydrolase isozyme L1 (Homo sapiens) (UniProt P09936) (assay: UCH-L1 deubiquitylase inhibitors, biochemical concentration-response, hit retest (AID 1645867)). Details: recombinant UCHL1 deubiquitinase activity assay.
Sequence of Ubiquitin carboxyl-terminal hydrolase isozyme L1 (Homo sapiens) (P09936 whole entry, looked up): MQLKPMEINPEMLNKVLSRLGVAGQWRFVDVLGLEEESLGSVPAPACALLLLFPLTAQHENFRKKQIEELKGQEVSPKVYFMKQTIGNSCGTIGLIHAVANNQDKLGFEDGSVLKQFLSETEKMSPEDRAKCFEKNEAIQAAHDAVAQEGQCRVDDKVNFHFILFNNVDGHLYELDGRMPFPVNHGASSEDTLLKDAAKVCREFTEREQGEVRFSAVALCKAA
`CC(C)CC[C@H]1O[C@@H](CC(=O)O)Cc2cc3c(c(O)c21)C(=O)c1sc(=O)n(C)c1C3=O` was tested, and the IC50 was > 25 µM (inactive).
`Cc1ccc(-n2ccn3c(CCC(=O)NCc4ccc(F)cc4)nnc3c2=O)cc1C` was tested, and the IC50 was > 25 µM (inactive).
`COc1cccc(NC(=O)Cn2c3ccccc3n3c(=O)cc(-c4ccccc4)nc23)c1` was tested, and the IC50 was > 25 µM (inactive).
With `CCC(=O)N1CCCC1c1nc2ccccc2n1Cc1ccc(F)cc1` (centres undefined) the IC50 was > 25 µM (inactive).
In the case of `O=C1CSC(c2ccc(F)cc2)c2c(n(C3CCCCCC3)[nH]c2=O)N1` (centres undefined), the IC50 is reported as > 25 µM (inactive).
In the case of `Cc1ccc2nc(CCc3ccc(NS(=O)(=O)c4ccc(F)c(Cl)c4)cc3)[nH]c2c1`, the IC50 is reported as > 25 µM (inactive).
With `CC(C)(NC(=O)C1CCCCC1)c1nc2c(c(C(N)=O)n1)OCCO2` the IC50 was > 25 µM (inactive).
For `CC(C)(C)n1nc2c(c1NC(=O)Cc1ccccc1)CSC2`, the IC50 was > 25 µM (inactive).
With `N=C1/C(=C/c2cn(Cc3ccccc3F)c3ccccc23)C(=O)N=C2SC(C(F)(F)F)=NN12` the IC50 was > 25 µM (inactive).
In the case of `Cc1ccc(-n2nc3c(c2NC(=O)c2ccc(F)c(F)c2)CS(=O)(=O)C3)cc1`, the IC50 is reported as > 25 µM (inactive).
In the case of `CC(=O)O[C@@H]1C(=O)C2=C(C(=O)C[C@H]3C(C)(C)C(=O)CC[C@]23C)[C@]2(C)C(=O)C[C@H]([C@H](C)CC(=O)C[C@@H](C)C(=O)O)[C@@]12C`, the IC50 is reported as > 25 µM (inactive).
With `O=C1CC(c2ccccc2O)Oc2ccccc21` (centres undefined) the IC50 was > 25 µM (inactive).
With `O=C(NCc1ccc(Br)cc1)c1cc(-c2cccnc2)n[nH]1` the IC50 was > 25 µM (inactive).
With `COc1cc(O)cc2c1C(=O)OC(C)CCCCCCC2` (centres undefined) the IC50 was > 25 µM (inactive).
`O=C(Nc1nc2ccccc2s1)C1CC(=O)N(c2ccccc2)C1` (centres undefined) was tested, and the IC50 was > 25 µM (inactive).
In the case of `O=C1c2ccccc2C(=O)c2c(O)c(O)cc(O)c21`, the IC50 is reported as 1.97 µM.
With `O=C(CCCCn1c(=O)[nH]c2ccccc2c1=O)Nc1cccc(Cl)c1` the IC50 was > 25 µM (inactive).
`O=C1C=C(O)c2c(O)cccc2C1=O` was tested, and the IC50 was > 25 µM (inactive).
`CC1=C(C)C(c2c(-c3ccc(C)cc3)[nH]c3ccccc23)N(C(C)(C)C)C1=O` (centres undefined) was tested, and the IC50 was > 25 µM (inactive).
In the case of `O=C(CN1CC(=O)c2ccccc2S1(=O)=O)Nc1ccccc1`, the IC50 is reported as > 25 µM (inactive).
With `Cc1ccc(Cn2c(=O)c(C#N)c3n(c2=O)CCC3)cc1` the IC50 was > 25 µM (inactive).
For `COc1ccc(CNC(=O)Nc2cccc3ccccc23)cc1`, the IC50 was > 25 µM (inactive).
With `COc1ccc(-c2noc(CN3CCCC3c3cnn(C)c3)n2)cc1` (centres undefined) the IC50 was > 25 µM (inactive).
In the case of `COc1ccc(NC(=O)[C@H](C)NC(=O)c2cc3c(OC)cccc3[nH]2)cc1Cl`, the IC50 is reported as > 25 µM (inactive).
With `Fc1cc(F)c2[nH]cc(-c3nnnn3-c3ccc4ccccc4c3)c2c1` the IC50 was > 25 µM (inactive).
For `Cc1cccc(CCN2C(=O)CCc3c(C)nc(C4CCCNC4)nc32)c1` (centres undefined), the IC50 was > 25 µM (inactive).
`Cc1cc(C)n2nc(Cc3ccccc3)nc2n1` was tested, and the IC50 was > 25 µM (inactive).
In the case of `O=c1c2cc(-c3ccccc3)nn2ccn1Cc1noc(CN2CCCCC2)n1`, the IC50 is reported as > 25 µM (inactive).
`O=C(Cn1c(=O)c2ccccc2c2ccccc21)Nc1ccc2c(c1)OCO2` was tested, and the IC50 was > 25 µM (inactive).
In the case of `O=C1CC(c2ccco2)Cc2[nH]c(=O)c(-c3nc(-c4ccc(Cl)cc4)cs3)cc21` (centres undefined), the IC50 is reported as > 25 µM (inactive).
`O=C(NC1(O)C(=O)c2ccccc2C1=O)c1cccc2c1-c1ccccc1C2=O` was tested, and the IC50 was 15.6 µM.
For `COc1ccc(Cl)cc1NC(=O)CSc1ncnc2nc[nH]c12`, the IC50 was > 25 µM (inactive).
`COc1ccc2c(CNCCC3=CCCCC3)c(C(=O)O)n(Cc3ccc(F)cc3)c2c1` was tested, and the IC50 was > 25 µM (inactive).
`c1ccc(-c2ccc(NCc3ccc4c(c3)OCO4)nn2)cc1` was tested, and the IC50 was > 25 µM (inactive).
In the case of `CCOc1ccc(NC(=O)Cn2c(=O)n(CCCCCC(=O)NCc3ccc(F)cc3)c(=O)c3sccc32)cc1`, the IC50 is reported as > 25 µM (inactive).
In the case of `COc1cccc2c1NC(=O)C21CCN(C(=O)Nc2cccc3ccccc23)CC1`, the IC50 is reported as > 25 µM (inactive).
With `CCc1cccc(CC)c1NC(=O)COC(=O)c1cc2cccc(OC)c2oc1=O` the IC50 was > 25 µM (inactive).
In the case of `Cc1ccc(C(=O)N[C@@H](Cc2ccccc2)C(=O)N2CCC3(CC2)NCCc2[nH]cnc23)cc1C`, the IC50 is reported as > 25 µM (inactive).
For `O=c1cc(Cc2ccccc2)nc2c(-c3ccccc3)c(COc3ccccc3)[nH]n12`, the IC50 was > 25 µM (inactive).
For `CCOc1ccc(-n2ccnc(SCC(=O)Nc3ccccc3F)c2=O)cc1`, the IC50 was > 25 µM (inactive).
For `COc1c2nc3ccccc3oc-2cc(=O)c1OC`, the IC50 was > 25 µM (inactive).
For `CC(C)C(=O)Nc1nc2cc(NS(=O)(=O)c3ccccc3)ccc2s1`, the IC50 was > 25 µM (inactive).
For `Cc1ccc(Cn2c(C(=O)O)c(CNCc3cccnc3)c3ccccc32)cc1`, the IC50 was > 25 µM (inactive).
In the case of `Nc1ccc(F)c(NS(=O)(=O)c2ccccc2)c1`, the IC50 is reported as > 25 µM (inactive).
With `Cn1cc(NC(=O)Nc2cccc(C(F)(F)F)c2)c2ccccc2c1=O` the IC50 was > 25 µM (inactive).
With `Cc1ccc2c(c1)c(=O)c(C(=O)c1ccccc1)cn2CC(=O)Nc1ccc2c(c1)OCO2` the IC50 was > 25 µM (inactive).
For `O=C(Cc1c[nH]c2ccccc12)N1CCc2cc(-c3ccno3)ccc21`, the IC50 was > 25 µM (inactive).
For `COc1cccc(C(=O)N2CCc3nc(-c4ccc(F)cc4)ncc3C2)c1`, the IC50 was > 25 µM (inactive).
With `O=C(CSc1cn(Cc2ccccc2Cl)c2ccccc12)N1CCOCC1` the IC50 was > 25 µM (inactive).
With `COc1ccc2c(C)c(CC(=O)N3CCC[C@H]3C(=O)O)c(=O)oc2c1C` the IC50 was > 25 µM (inactive).
With `COc1ccccc1Nc1ncc(C(=O)NCCc2ccc(Cl)cc2)c2ccccc12` the IC50 was > 25 µM (inactive).
For `O=C(COc1ccc(Cl)cc1)Nc1noc(-c2cccs2)n1`, the IC50 was > 25 µM (inactive).
`CC(OC(=O)c1cccc(N(C)C)c1)C(=O)Nc1ncc(Cl)cc1Cl` (centres undefined) was tested, and the IC50 was > 25 µM (inactive).
With `C=C1CCC2[C@](C)(CCC[C@]2(C)C(=O)OC)[C@H]1CCc1ccoc1/C=C/C(=O)O` (some centres undefined) the IC50 was > 25 µM (inactive).
`O=C(Nc1ccc2c(c1)OCO2)c1cncc(NS(=O)(=O)c2ccccc2)c1` was tested, and the IC50 was > 25 µM (inactive).
`CCc1[nH]c(=O)cc2cc(OC)c(OC)cc12` gave an IC50 of 23.5 µM.
For `Cc1nn(-c2ccccc2)c2c1N=C1C(Cl)=CC(Cl)=CN1C21C(=O)Nc2ccccc21` (centres undefined), the IC50 was 3.72 µM.
In the case of `Cc1ccc2c(c1)c(=O)c(C(=O)c1ccccc1)cn2CC(=O)Nc1ccccc1`, the IC50 is reported as > 25 µM (inactive).
For `Cc1c(-c2nsc(NC(=O)c3ccc(Cl)cc3)n2)nnn1-c1ccccc1F`, the IC50 was > 25 µM (inactive).
For `O=C(COc1ccc(N2CC(C(=O)NCc3ccccc3)CC2=O)cc1)Nc1ccc(F)cc1` (centres undefined), the IC50 was > 25 µM (inactive).
`O=C(Cn1c(COc2ccccc2)nc2ccccc21)Nc1cc(Cl)cc(Cl)c1` was tested, and the IC50 was > 25 µM (inactive).
In the case of `O=C(COc1ccc(N2CC(C(=O)NCc3ccccc3)CC2=O)cc1)Nc1ccccc1Cl` (centres undefined), the IC50 is reported as > 25 µM (inactive).
With `CN(Cc1ccccc1)S(=O)(=O)c1ccc2[nH]c(=O)[nH]c2c1` the IC50 was > 25 µM (inactive).
With `COc1cccc(-n2cnc3cc(C(=O)NCCc4ccccc4)ccc3c2=O)c1` the IC50 was > 25 µM (inactive).
